Assay results as given in patent US6485921B1, “UBCLP and uses thereof” (Millennium Pharmaceuticals, Inc., priority 1998, dated 2002).

System: UBCLP expression in LNCaP cells
Experiment: Expression of UBCLP in LNCaP prostate cancer cells treated with casodex or R1881
Format: cell-based, human
Settings: 100 nM casodex versus 1 nM R1881, RPMI-1640 with 5% charcoal stripped serum, mRNA expression analysis
Experimental: In order to examine the effect of casodex, an anti-androgen, on the expression of UBCLP, LNCaP cells (androgen-responsive prostate cancer cells) were grown to 70% confluence in RPMI-1640 supplemented with 10% FBS. The cultures were then pretreated for 24 hours in dye-free RPMI-1640 containing 5% charcoal stripped serum. The cultures were then treated with either 1 nM R1881 or 100 nM casodex in RPMI-1640 containing 5% charcoal stripped serum prior to harvesting an extraction of total mRNA for expression analysis.
In CWR22 cells (a human primary prostate xenograft cell line; Wainstein et al. (1994) Cancer Res. 54:6059-52) implanted in male nude mice, UBCLP expression levels decrease about 5-fold in 21 days after castration. In CWR22R cells (Chen et al. (1998) Cancer Res 58:2777-83), an androgen-independent variant of CWR22 cells, UBCLP appears to be constitutively expressed with respect to androgen.

CC(O)(CS(=O)(=O)c1ccc(F)cc1)C(=O)Nc1ccc(C#N)c(C(F)(F)F)c1 (stereo not shown) [Casodex]
drop in UBCLP expression: 3 fold
